Like-named read-outs stand apart in the source and are kept apart here.

The test system of data set [1] is metastatic triple negative breast cancer. Conditions: cited from earlier work.
The test system of data set [2] is hereditary BRCA1/2-related breast cancer. Conditions: cited from earlier work.
Data set [3] relates to sporadic triple negative breast cancer. To be noted: cited from earlier work.
Another data set deals with HS578T. Description: growth inhibition assay, sensitivity to olaparib (SF50). The data set is classed as cell-based, human. The method, then:
(§1) Cells were exposed continuously to the inhibitor, and medium and inhibitor were replaced every four days. After 15 days, cells were fixed and stained with sulphorhodamine-B (Sigma, St. Louis, USA) and a colorimetric assay performed as described previously. Surviving fractions (SFs) were calculated and drug sensitivity curves determined with the Four Parameter Logistic Regression model as previously described. […] Nature 2005, 434(7035):917-921, Edwards S L, Brough R, Lord […], Boyd […], Ashworth A: […] Nature 2008, 451(7182):1111-1115]. […] Oncogene 30 (29):3222-3233. doi:10.1038/one.2011.421). A detailed description of the availability and preprocessing of all molecular data sets is provided below and [[…], et al., (2012) Subtype and pathway specific responses to anticancer compounds in breast cancer. […] These cells mirror many of the transcriptional and genomic characteristics of primary breast tumors and have been used to model responses to a large number of experimental and approved therapeutic compounds [Neve R M, Chin […], Clark L, Bayani N, Coppe J P, Tong F et al: A collection of breast cancer cell lines for the study of functionally distinct cancer subtypes. […] (2012) Subtype and pathway specific responses to anticancer compounds in breast cancer. […] Cell lines were divided into a group of 15 resistant and 7 sensitive cell lines, based on an SF50 threshold of 1 μM. […] Surviving fractions (SFs) were calculated and drug sensitivity curves determined with the Four Parameter Logistic Regression model as previously described [Farmer H, McCabe N, Lord C J, Tutt A N, Johnson D A, Richardson […], Dillon […], Knights C et al: Targeting the DNA repair defect in BRCA mutant cells as a therapeutic strategy. Nature 2005, 434(7035):917-921].\

In another data set the test system is MDAMB231. The description is as above. The class given is cell-based, human. The method, then:
as §1

The next data set relates to HCC1428. The data set is described as above. The class given is cell-based, human. The method, then: as §1
For another data set, the system named is HCC1143. The data set is described as above. The data set is classed as cell-based, human. The method, then:
as §1

The next data set relates to HCC1954. The data set is described as above. The data set is classed as cell-based, human. The method, then: as §1
Another data set deals with BT474. Described as above. The class given is cell-based, human. The method, then:
as §1

For the next data set, the system named is HCC70. The data set is described as above. The class given is cell-based, human. The method, then:
as §1

Another data set concerns SUM149PT. Described as above. The class given is cell-based, human. The method, then:
as §1

Another data set has as its system BT20. The data set is described as above. The data set is classed as cell-based, human. The method, then: as §1
A further data set concerns HCC202. The description is as above. The class given is cell-based, human. The method, then: as §1
In another data set the test system is MDAMB134VI. Described as above. The class given is cell-based, human. The method, then:
as §1

Another data set concerns MCF7. The description is as above. The data set is classed as cell-based, human. The method, then: as §1
The subject of another data set is CAMA1. The data set is described as above. The data set is classed as cell-based, human. The method, then:
as §1

Another data set deals with MDAMB436. Described as above. The data set is classed as cell-based, human. The method, then: as §1
In the next data set the test system is BT549. The description is as above. The data set is classed as cell-based, human. The method, then: as §1
The subject of a further data set is HCC38. The data set is described as above. The data set is classed as cell-based, human. The method, then: as §1
The subject of the next data set is MDAMB468. Described as above. The data set is classed as cell-based, human. The method, then:
as §1

Another data set has as its system SKBR3. The data set is described as above. The data set is classed as cell-based, human. The method, then:
as §1

The next data set relates to T47D. The description is as above. The class given is cell-based, human. The method, then: as §1
In a further data set the test system is MDAMB453. The data set is described as above. The class given is cell-based, human. The method, then: as §1
In the next data set the test system is SUM159PT. The description is as above. The data set is classed as cell-based, human. The method, then:
as §1

The next data set has as its system MDAMB157. Described as above. The class given is cell-based, human. The method, then: as §1
Data set [4] deals with panel of 22 breast cancer cell lines. The data set is described as follows: growth inhibition assay, whole panel (SF50). The class given is cell-based, human. The method, then:
as §1

The test system of data set [5] is carriers of a BRCA1/2 mutation and patients without known BRCA mutations. To be noted: cited from earlier work.
Data set [6] concerns BRCA1/2 mutation carriers. Conditions: monotherapy; BRCA1/2 mutation carriers who had previously received several courses of chemotherapy; cited from earlier work.
The mark [7] stands for this setting: heavily pre-treated sporadic triple negative breast cancer.
[8] abbreviates: read-out: Olaparib SF50, continuous exposure 15 days, sulphorhodamine-B.
[9] abbreviates: read-out: olaparib SF50, Table 9.

Consider `NC(=O)c1ccc(I)c([N+](=O)[O-])c1` [BSI-201], for which, in [1] (combined with gemcitabine/carboplatin chemotherapy), the “survival, phase II clinical trial” value is on record as “dramatic survival advantage”. Moreover, in data set [1] (combined with gemcitabine/carboplatin), the “confirmation in randomized, open-label phase III study” value is “could not be confirmed”.

For the compound `C[C@]1(c2nc3c(C(N)=O)cccc3[nH]2)CCCN1` [ABT-888], the “efficacy combined with DNA-damaging agent temozolomide” value in data set [2] is “efficacious”. In addition, the “activity of the combination with temozolomide” value in data set [3] (setting [7]) is on record as “no evidence of activity”.

Regarding `O=C(c1cc(Cc2n[nH]c(=O)c3ccccc23)ccc1F)N1CCN(C(=O)C2CC2)CC1` [Olaparib], the IC50 is 6.55 µM in the data set with HS578T (setting [8]); 6.55 µM in the data set with HS578T (setting [9]); 30 µM in the data set with MDAMB231 (setting [8]); 30 µM with MDAMB231 (setting [9]); more than 50 µM in the data set on HCC1428 (setting [8]); more than 50 µM in the data set on HCC1428 (setting [9]). Besides, the IC50 with HCC1143 (setting [8]) was found to be 0.0211 µM; in the data set with HCC1143 (setting [9]), 0.0211 µM; with HCC1954 (setting [8]), 15.5 µM; in the data set with HCC1954 (setting [9]), 15.5 µM; with BT474 (setting [8]) it was 32 µM; with BT474 (setting [9]) it was 32 µM. Further, the IC50 with HCC70 (setting [8]) was 0.655 µM; in the data set with HCC70 (setting [9]) it was 0.655 µM; in the data set on SUM149PT (setting [8]) it was 0.0161 µM; with SUM149PT (setting [9]), 0.0161 µM; in the data set with BT20 (setting [8]) it was more than 50 µM; in the data set on BT20 (setting [9]), more than 50 µM. Besides, the IC50 in the data set on HCC202 (setting [8]) was 0.413 µM; with HCC202 (setting [9]) it was 0.413 µM; in the data set on MDAMB134VI (setting [8]), 30.9 µM; in the data set on MDAMB134VI (setting [9]) it was 30.9 µM; in the data set with MCF7 (setting [8]), 14.7 µM; in the data set on MCF7 (setting [9]), 14.7 µM. In addition, the IC50 in the data set on CAMA1 (setting [8]) was more than 50 µM; with CAMA1 (setting [9]) it was more than 50 µM; with MDAMB436 (setting [8]), 0.00044 µM; in the data set with MDAMB436 (setting [9]), 0.00044 µM; in the data set with BT549 (setting [8]) it was 21.4 µM; in the data set on BT549 (setting [9]) it was 21.4 µM. In addition, the IC50 in the data set with HCC38 (setting [8]) was more than 50 µM; in the data set with HCC38 (setting [9]), more than 50 µM; in the data set on MDAMB468 (setting [8]), 0.514 µM; in the data set on MDAMB468 (setting [9]), 0.514 µM; with SKBR3 (setting [8]), more than 50 µM; in the data set on SKBR3 (setting [9]) it was more than 50 µM. Moreover, the IC50 in the data set on T47D (setting [8]) is 19.9 µM; with T47D (setting [9]), 19.9 µM; with MDAMB453 (setting [8]) it was 0.00915 µM; with MDAMB453 (setting [9]) it was 0.00915 µM; with SUM159PT (setting [8]), 16.3 µM; in the data set on SUM159PT (setting [9]), 16.3 µM. Besides, the IC50 was 2.41 µM with MDAMB157 (setting [8]); 2.41 µM with MDAMB157 (setting [9]); more than 50 µM in [4] (5 cell lines of the panel, read-out: SF50 not reached at the maximum treatment concentration); 0.00044 µM in data set [4] (read-out: concentration of olaparib needed to reduce survival to 50% (SF50), lower end of the range, lowest SF50 among 22 breast cancer cell lines); 32 µM in data set [4] (read-out: concentration of olaparib needed to reduce survival to 50% (SF50), upper end of the range, highest SF50 reached among 22 breast cancer cell lines). In addition, the “efficacy as single agent” value in data set [2] is “efficacious”. In addition, in data set [5] (BRCA1/2 mutation carriers vs patients without known BRCA mutations), the “antitumor activity, phase 1 trial” value was “has antitumor activity for the majority of carriers of a BRCA1/2 mutation but not for patients without known BRCA mutations”. Further, the “adverse effects, phase 1 trial” value in [5] (compared with conventional chemotherapy) is listed as “only a few of the adverse effects of conventional chemotherapy”. Moreover, the “results as single agent” value in data set [3] (setting [7]) is given as “negative results”. Also, the “response to monotherapy, phase 2 trial” value in [3] (olaparib monotherapy, triple negative breast cancer patients) is “largely did not respond”. The objective response rates in data set [6] is listed as 41%.

Turning to `NC(=O)c1cccc2cn(-c3ccc([C@@H]4CCCNC4)cc3)nc12` [MK-4827], the “efficacy as single agent” value in data set [2] is given as “efficacious”.

These data come from patent US20140364434A1, “Biomarkers for Prediction of Response to PARP Inhibition in Breast Cancer” (The Regents of the University of Califonia, priority 2011, published 2014).
